Source: ChEMBL document CHEMBL3885881, “DrugMatrix”

Species on record: Rattus norvegicus
Experiment: DrugMatrix - Regimen: Daily Repeat
Format: toxicity, organism-based, Sprague-Dawley
Parameters: regimen Daily Repeat, gender Male, age 6-8 weeks
Details: in vivo, po, route oral GAVAGE, […]; for ABSOLUTE BASOPHIL / ABSOLUTE EOSINOPHIL / ABSOLUTE LYMPHOCYTE / ABSOLUTE MONOCYTE / ABSOLUTE SEGMENTED NEUTROPHIL / BASOPHIL / EOSINOPHIL / ERYTHROCYTE COUNT / HEMATOCRIT / HEMOGLOBIN / LEUKOCYTE COUNT / LYMPHOCYTE / MEAN CORPUSCULAR HEMOGLOBIN / MEAN CORPUSCULAR HEMOGLOBIN CONCENTRATION / MEAN CORPUSCULAR VOLUME / MONOCYTE / NEUTROPHIL / NUCLEATED RED BLOOD CELLS / PLATELET COUNT: tissue Blood; for ALANINE AMINOTRANSFERASE / ALBUMIN / ALKALINE PHOSPHATASE / ASPARTATE AMINOTRANSFERASE / BLOOD UREA NITROGEN / CARBON DIOXIDE / CHLORIDE / CHOLESTEROL / CREATINE PHOSPHOKINASE / CREATININE / GLUCOSE / LACTATE DEHYDROGENASE / LIPASE / PHOSPHORUS / POTASSIUM / SODIUM / TOTAL BILIRUBIN / TOTAL PROTEIN / URIC ACID: tissue Plasma
[1] = 20 mg/kg, 72 h, dose level Low, time 3 day
[2] = 20 mg/kg, 120 h, dose level Low, time 5 day
[3] = 62 mg/kg, 72 h, dose level High, time 3 day
[4] = 62 mg/kg, 120 h, dose level High, time 5 day

CCCSc1ccc2nc(NC(=O)OC)[nH]c2c1 [ALBENDAZOLE]
ABSOLUTE BASOPHIL [1]: 0 CELLS/uL | ABSOLUTE EOSINOPHIL [1]: 0 CELLS/uL | ABSOLUTE LYMPHOCYTE [1]: 12808 CELLS/uL | ABSOLUTE MONOCYTE [1]: 184.67 CELLS/uL | ABSOLUTE SEGMENTED NEUTROPHIL [1]: 1574 CELLS/uL | BASOPHIL [1]: 0% | EOSINOPHIL [1]: 0% | ERYTHROCYTE COUNT [1]: 5.37 x10E6/uL | HEMATOCRIT [1]: 33.33% | HEMOGLOBIN [1]: 13.47 G/DL | LEUKOCYTE COUNT [1]: 14.57 x10E3/uL | LYMPHOCYTE [1]: 88.67% | MEAN CORPUSCULAR HEMOGLOBIN [1]: 25.17 pg | MEAN CORPUSCULAR HEMOGLOBIN CONCENTRATION [1]: 40.47 G/DL | MEAN CORPUSCULAR VOLUME [1]: 62.17 fL | MONOCYTE [1]: 1.33% | NEUTROPHIL [1]: 10% | NUCLEATED RED BLOOD CELLS [1]: 0.33 /100WBC | PLATELET COUNT [1]: 1157.33 x10E3/uL | ALANINE AMINOTRANSFERASE [1]: 56.33 u/L | ALBUMIN [1]: 3.6 G/DL | ALKALINE PHOSPHATASE [1]: 430 u/L | ASPARTATE AMINOTRANSFERASE [1]: 87.33 u/L | BLOOD UREA NITROGEN [1]: 13.33 mg/dL | CARBON DIOXIDE [1]: 24.67 mmol/L | CHLORIDE [1]: 101 MEQ/L | CHOLESTEROL [1]: 64 mg/dL | CREATINE PHOSPHOKINASE [1]: 390.67 u/L | CREATININE [1]: 0.21 mg/dL | GLUCOSE [1]: 220.67 mg/dL | LACTATE DEHYDROGENASE [1]: 112.33 u/L | LIPASE [1]: 10.67 u/L | PHOSPHORUS [1]: 12.2 mg/dL | POTASSIUM [1]: 6.27 MEQ/L | SODIUM [1]: 141.23 MEQ/L | TOTAL BILIRUBIN [1]: 0.2 mg/dL | TOTAL PROTEIN [1]: 5.2 G/DL | URIC ACID [1]: 2.23 mg/dL | ABSOLUTE BASOPHIL [2]: 0 CELLS/uL | ABSOLUTE EOSINOPHIL [2]: 69.33 CELLS/uL | ABSOLUTE LYMPHOCYTE [2]: 7738 CELLS/uL | ABSOLUTE MONOCYTE [2]: 149.67 CELLS/uL | ABSOLUTE SEGMENTED NEUTROPHIL [2]: 776.33 CELLS/uL | BASOPHIL [2]: 0% | EOSINOPHIL [2]: 0.67% | ERYTHROCYTE COUNT [2]: 4.93 x10E6/uL | HEMATOCRIT [2]: 31.3% | HEMOGLOBIN [2]: 12.87 G/DL | LEUKOCYTE COUNT [2]: 8.73 x10E3/uL | LYMPHOCYTE [2]: 89.33% | MEAN CORPUSCULAR HEMOGLOBIN [2]: 26.07 pg | MEAN CORPUSCULAR HEMOGLOBIN CONCENTRATION [2]: 41.1 G/DL | MEAN CORPUSCULAR VOLUME [2]: 63.4 fL | MONOCYTE [2]: 1.67% | NEUTROPHIL [2]: 8.33% | NUCLEATED RED BLOOD CELLS [2]: 0 /100WBC | PLATELET COUNT [2]: 1525.33 x10E3/uL | ALANINE AMINOTRANSFERASE [2]: 53.67 u/L | ALBUMIN [2]: 4.03 G/DL | ALKALINE PHOSPHATASE [2]: 375.33 u/L | ASPARTATE AMINOTRANSFERASE [2]: 79 u/L | BLOOD UREA NITROGEN [2]: 15 mg/dL | CARBON DIOXIDE [2]: 26 mmol/L | CHLORIDE [2]: 102.67 MEQ/L | CHOLESTEROL [2]: 67 mg/dL | CREATINE PHOSPHOKINASE [2]: 225.67 u/L | CREATININE [2]: 0.21 mg/dL | GLUCOSE [2]: 161 mg/dL | LACTATE DEHYDROGENASE [2]: 141 u/L | LIPASE [2]: 11.67 u/L | PHOSPHORUS [2]: 10.97 mg/dL | POTASSIUM [2]: 5.64 MEQ/L | SODIUM [2]: 141.93 MEQ/L | TOTAL BILIRUBIN [2]: 0.1 mg/dL | TOTAL PROTEIN [2]: 5.5 G/DL | URIC ACID [2]: 1.37 mg/dL | ABSOLUTE BASOPHIL [3]: 0 CELLS/uL | ABSOLUTE EOSINOPHIL [3]: 0 CELLS/uL | ABSOLUTE LYMPHOCYTE [3]: 10254.67 CELLS/uL | ABSOLUTE MONOCYTE [3]: 0 CELLS/uL | ABSOLUTE SEGMENTED NEUTROPHIL [3]: 712 CELLS/uL | BASOPHIL [3]: 0% | EOSINOPHIL [3]: 0% | ERYTHROCYTE COUNT [3]: 5.64 x10E6/uL | HEMATOCRIT [3]: 34.47% | HEMOGLOBIN [3]: 13.47 G/DL | LEUKOCYTE COUNT [3]: 10.97 x10E3/uL | LYMPHOCYTE [3]: 94% | MEAN CORPUSCULAR HEMOGLOBIN [3]: 24 pg | MEAN CORPUSCULAR HEMOGLOBIN CONCENTRATION [3]: 39.13 G/DL | MEAN CORPUSCULAR VOLUME [3]: 61.27 fL | MONOCYTE [3]: 0% | NEUTROPHIL [3]: 6% | NUCLEATED RED BLOOD CELLS [3]: 0 /100WBC | PLATELET COUNT [3]: 1007.33 x10E3/uL | ALANINE AMINOTRANSFERASE [3]: 44 u/L | ALBUMIN [3]: 4.13 G/DL | ALKALINE PHOSPHATASE [3]: 381 u/L | ASPARTATE AMINOTRANSFERASE [3]: 99.67 u/L | BLOOD UREA NITROGEN [3]: 11 mg/dL | CARBON DIOXIDE [3]: 27.33 mmol/L | CHLORIDE [3]: 101.33 MEQ/L | CHOLESTEROL [3]: 99 mg/dL | CREATINE PHOSPHOKINASE [3]: 278 u/L | CREATININE [3]: 0.13 mg/dL | GLUCOSE [3]: 161.33 mg/dL | LACTATE DEHYDROGENASE [3]: 198.67 u/L | LIPASE [3]: 11.67 u/L | PHOSPHORUS [3]: 10.53 mg/dL | POTASSIUM [3]: 5.98 MEQ/L | SODIUM [3]: 141.53 MEQ/L | TOTAL BILIRUBIN [3]: 0.17 mg/dL | TOTAL PROTEIN [3]: 5.8 G/DL | URIC ACID [3]: 1.43 mg/dL | ABSOLUTE BASOPHIL [4]: 0 CELLS/uL | ABSOLUTE EOSINOPHIL [4]: 0 CELLS/uL | ABSOLUTE LYMPHOCYTE [4]: 7019.67 CELLS/uL | ABSOLUTE MONOCYTE [4]: 23.67 CELLS/uL | ABSOLUTE SEGMENTED NEUTROPHIL [4]: 190 CELLS/uL | BASOPHIL [4]: 0% | EOSINOPHIL [4]: 0% | ERYTHROCYTE COUNT [4]: 5.03 x10E6/uL | HEMATOCRIT [4]: 31% | HEMOGLOBIN [4]: 12.5 G/DL | LEUKOCYTE COUNT [4]: 7.23 x10E3/uL | LYMPHOCYTE [4]: 97% | MEAN CORPUSCULAR HEMOGLOBIN [4]: 24.9 pg | MEAN CORPUSCULAR HEMOGLOBIN CONCENTRATION [4]: 40.33 G/DL | MEAN CORPUSCULAR VOLUME [4]: 61.77 fL | MONOCYTE [4]: 0.33% | NEUTROPHIL [4]: 2.67% | NUCLEATED RED BLOOD CELLS [4]: 0 /100WBC | PLATELET COUNT [4]: 1425 x10E3/uL | ALANINE AMINOTRANSFERASE [4]: 29.33 u/L | ALBUMIN [4]: 4.03 G/DL | ALKALINE PHOSPHATASE [4]: 247.67 u/L | ASPARTATE AMINOTRANSFERASE [4]: 66.33 u/L | BLOOD UREA NITROGEN [4]: 12.33 mg/dL | CARBON DIOXIDE [4]: 24.33 mmol/L | CHLORIDE [4]: 101.33 MEQ/L | CHOLESTEROL [4]: 90.67 mg/dL | CREATINE PHOSPHOKINASE [4]: 237.67 u/L | CREATININE [4]: 0.11 mg/dL | GLUCOSE [4]: 141.33 mg/dL | LACTATE DEHYDROGENASE [4]: 106.33 u/L | LIPASE [4]: 11 u/L | PHOSPHORUS [4]: 11.33 mg/dL | POTASSIUM [4]: 6.31 MEQ/L | SODIUM [4]: 141.93 MEQ/L | TOTAL BILIRUBIN [4]: 0.27 mg/dL | TOTAL PROTEIN [4]: 5.37 G/DL | URIC ACID [4]: 1.77 mg/dL
